Among the data in ChEMBL document CHEMBL1151069 (Bioorg Med Chem Lett, 1996) are IC50 values, retold here.

One experiment concerns the target T1, Endothelin-1 receptor (Bos taurus, UniProt P21450).
T1 sequence (P21450 whole entry): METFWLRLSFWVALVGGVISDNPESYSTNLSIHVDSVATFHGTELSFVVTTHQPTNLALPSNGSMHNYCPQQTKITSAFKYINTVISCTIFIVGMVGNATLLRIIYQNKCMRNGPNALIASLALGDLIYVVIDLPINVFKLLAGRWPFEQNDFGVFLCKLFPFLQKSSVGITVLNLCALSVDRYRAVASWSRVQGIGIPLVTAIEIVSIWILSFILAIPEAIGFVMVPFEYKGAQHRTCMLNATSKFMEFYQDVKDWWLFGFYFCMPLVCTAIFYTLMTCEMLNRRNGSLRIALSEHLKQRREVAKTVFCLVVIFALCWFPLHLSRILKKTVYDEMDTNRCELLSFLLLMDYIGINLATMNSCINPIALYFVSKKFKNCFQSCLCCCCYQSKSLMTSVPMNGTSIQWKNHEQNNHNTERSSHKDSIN
As to the kind of experiment: Binding activity against Endothelin A receptor expressed from bovine lung membrane preparation. Format: tissue-based.

Experiment [1] has as its target T2, Endothelin receptor type B (Bos taurus, UniProt P28088).
T2 sequence (P28088 whole entry): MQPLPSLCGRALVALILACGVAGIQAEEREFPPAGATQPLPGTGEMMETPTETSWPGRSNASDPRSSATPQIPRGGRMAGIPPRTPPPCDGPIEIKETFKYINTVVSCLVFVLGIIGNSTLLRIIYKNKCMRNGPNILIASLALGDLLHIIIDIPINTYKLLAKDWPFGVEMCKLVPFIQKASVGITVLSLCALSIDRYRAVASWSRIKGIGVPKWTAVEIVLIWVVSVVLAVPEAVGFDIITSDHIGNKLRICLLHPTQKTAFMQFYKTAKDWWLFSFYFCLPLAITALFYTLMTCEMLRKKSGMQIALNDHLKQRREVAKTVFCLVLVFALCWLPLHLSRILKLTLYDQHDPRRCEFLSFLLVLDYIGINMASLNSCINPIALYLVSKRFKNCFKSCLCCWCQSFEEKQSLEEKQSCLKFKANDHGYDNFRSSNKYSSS
Kind of experiment: Binding activity against Endothelin B receptor expressed from bovine cerebellum membrane preparation. It counts as tissue-based.

Positions of bridges follow the written chain, without caps; N, C: chain ends. Residues, ends and D or L forms follow the SMILES beside them. A value given as a limit tells only on which side of the number the result lay.

The IC50 is the concentration needed to halve the response being measured. A high value points to lower potency. Molecule `C[C@@H]1NC(=O)[C@@H]([C@@H](C)O)NC(=O)CNC(=O)[C@@H](Cc2cnc[nH]2)NC(=O)[C@H](Cc2c[nH]c3ccccc23)NC(=O)[C@@H](CC(N)=O)NC(=O)CNC(=O)C[C@H](C(=O)N[C@@H](Cc2c[nH]c3ccccc23)C(=O)N[C@@H](Cc2ccccc2)C(=O)N[C@@H](Cc2ccccc2)C(=O)N[C@@H](CC(N)=O)C(=O)N[C@@H](Cc2ccc(O)cc2)C(=O)N[C@@H](Cc2ccc(O)cc2)C(=O)N[C@@H](Cc2c[nH]c3ccccc23)C(=O)O)NC(=O)[C@H]2CCCN2C1=O` came in with an IC50 at Endothelin-1 receptor greater than 98 nM.
Turning to `C[C@@H]1NC(=O)[C@H]([C@@H](C)O)NC(=O)CNC(=O)[C@H](Cc2c[nH]cn2)NC(=O)[C@H](Cc2c[nH]c3ccccc23)NC(=O)[C@H](CC(N)=O)NC(=O)CNC(=O)C[C@@H](C(=O)N[C@@H](Cc2c[nH]c3ccccc23)C(=O)N[C@@H](Cc2ccccc2)C(=O)N[C@@H](Cc2ccccc2)C(=O)N[C@@H](CC(N)=O)C(=O)N[C@@H](Cc2ccc(O)cc2)C(=O)N[C@@H](Cc2ccc(O)cc2)C(=O)N[C@@H](Cc2ccc3ccccc3c2)C(=O)O)NC(=O)[C@@H]2CCCN2C1=O`, the IC50 in experiment [1] was determined as 6.3 nM.
Consider `C[C@@H]1NC(=O)[C@@H]([C@@H](C)O)NC(=O)CNC(=O)[C@@H](Cc2c[nH]cn2)NC(=O)[C@H](Cc2c[nH]c3ccccc23)NC(=O)[C@@H](CC(N)=O)NC(=O)CNC(=O)C[C@H](C(=O)N[C@@H](Cc2c[nH]c3ccccc23)C(=O)N[C@@H](Cc2ccccc2)C(=O)N[C@@H](Cc2ccccc2)C(=O)N[C@@H](CC(N)=O)C(=O)N[C@@H](Cc2ccc(O)cc2)C(=O)N[C@H](Cc2ccc(O)cc2)C(=O)N[C@@H](Cc2c[nH]c3ccccc23)C(=O)O)NC(=O)[C@H]2CCCN2C1=O`, for which the IC50 at Endothelin-1 receptor is greater than 98 nM.
`C[C@@H]1NC(=O)[C@H]([C@@H](C)O)NC(=O)CNC(=O)[C@H](Cc2c[nH]cn2)NC(=O)[C@H](Cc2c[nH]c3ccccc23)NC(=O)[C@H](CC(N)=O)NC(=O)CNC(=O)C[C@@H](C(=O)N[C@@H](Cc2c[nH]c3ccccc23)C(=O)N[C@@H](Cc2ccccc2)C(=O)N[C@@H](Cc2ccccc2)C(=O)N[C@@H](CC(N)=O)C(=O)N[C@@H](Cc2ccc(O)cc2)C(=O)N[C@@H](Cc2ccc(O)cc2)C(=O)NCC(=O)O)NC(=O)[C@@H]2CCCN2C1=O` (GNWHGTAPDWFFNYYG-OH; lactam N-9): the IC50 is greater than 520 nM at Endothelin-1 receptor and 120 nM in experiment [1].
